{"source": "patent US20170071976A1", "about": "“PHARMACEUTICAL SOLUTION HAVING ANTI-TUMOR EFFECT-ENHANCING AND TOXICITY-REDUCING EFFECT, AND PHARMACEUTICAL COMPOSITION COMPRISING SAME” (priority 2014, published 2017)", "key": {"[1]": {"system": "xenograft tumors from human colon cancer HCT-116 cells", "assay": "HCT-116 xenograft in nude mice, intravenous deuterium oxide in combination with 5-fluorouracil", "assay_type": "in vivo, BALB/c nude mice", "method": "Ltd. Cell lines: human colon cancer cells HCT-116 were provided by NANJING […] BIOTECH. CO., LTD. […] Bone marrow nucleated cells were isolated by a routine method, DNA was extracted from the cells, the OD value was measured in a UV-260 spectrometer as a representative of the DNA content, and inhibition of DNA synthesis by the test samples was observed. The test used 7 groups in total, with 8 animals per group. […] Tumor volume (TV) was calculated by the following equation: […] From the measurements, relative tumor volume (RTV) was calculated by the following equation: RTV=Vt/V0 Relative tumor growth ratio T/C (%) was calculated by the following equation: Criteria of efficacy evaluation: […] T/C %≦40% and statistically P<0.05, efficacious. Inhibition of tumor growth (%) was calculated by the following equation: Criteria of efficacy evaluation: […] The mean value was expressed in X±SD. Inter-group analysis was statistically performed with t test. The results were statistically analyzed using SPSS (Statistical Package for the Social Science) 17.0."}, "[2]": {"system": "xenograft tumors from human breast cancer MCF-7 cells", "assay": "MCF-7 xenograft in nude mice, intravenous deuterium oxide in combination with gemcitabine", "assay_type": "in vivo, BALB/c nude mice", "conditions": "Paclitaxel 8 mg/kg × 11, tail vein", "method": "Ltd. Cell lines: human breast cancer MCF-7 cells were provided by NANJING […] BIOTECH. CO., LTD. […] Bone marrow nucleated cells were isolated by a routine method, DNA was extracted from the cells, the OD value was measured in a UV-260 spectrometer as a representative of the DNA content, and inhibition of DNA synthesis by the test samples was observed. The test used 7 groups in total, with 8 animals per group. […] Statistics: the same as Example 21."}, "[3]": {"system": "xenograft tumors from human ovarian cancer SKOV3 cells", "assay": "SKOV3 xenograft in nude mice, intravenous deuterium oxide in combination with paclitaxel", "assay_type": "in vivo, BALB/c nude mice", "conditions": "Paclitaxel 8 mg/kg × 11, tail vein", "source_text": "3. […] 4. Statistics: the same as Example 21."}, "[4]": {"system": "xenograft tumors from human lung cancer A549 cells", "assay": "A549 xenograft in nude mice, intravenous deuterium oxide in combination with gemcitabine", "conditions": "Paclitaxel 8 mg/kg × 11, tail vein; for Tumor weight: control 2.92 ± 0.27; for Inhibition (%): tumor weight", "quoted_text": "(§1) Animal: 6 to 7 week-aged female BALB/c nude mice, each weighing 18 to 20 g, provided by Shanghai SLAC Laboratory Animal Co. Ltd.\nTest drugs: gemcitabine (GEM) and the sodium chloride deuterium oxide solution prepared in Example 1.\n(§2) Tumor cells were resuscitated and inoculated, and sterile sodium chloride physiological solution was added thereto to make a cell suspension which was subcutaneously inoculated into the upper right axillary fossa of animals. 5×10^6 tumor cells were inoculated into each animal.\nThe diameter of xenograft tumors in the nude mice was measured with a vernier caliper, and 10 days after inoculation, when tumors grew to 100 to 110 cm^3, the animals were randomized with 8 mice per group. Meanwhile drugs were administered by injection into tail vein, once every three days, for 21 successive days. By measuring the tumor diameter, the anti-tumor efficacy of test samples was dynamically observed. Meanwhile the body weight of animals was also recorded to observe the toxicity of the test samples. 21 days after administration, the nude mice were sacrificed, and tumors were harvested by surgery, weighed and photographed.\n6) Test group 2: gemcitabine (10 mg/kg) diluted in the sodium chloride deuterium oxide solution (10 ml/kg). 7) Test group 3: gemcitabine (10 ml/kg) diluted in the sodium chloride deuterium oxide solution (20 ml/kg)."}, "[5]": {"system": "xenograft tumors from human bladder cancer 5637 cells", "conditions": "Thiotepa 0.2 mg/kg × 11, tail vein; for Inhibition (%): tumor weight", "from_the_text": "Inhibition of growth of xenograft tumors from human bladder cancer 5637 cells in nude mice by intravenous injection of deuterium oxide in combination with thiotepa\nas §1\nCell lines: human bladder cancer 5637 cells were provided by NANJING KEYGEN BIOTECH. CO., LTD.\nTest drugs: thiotepa and the sodium chloride deuterium oxide solution, prepared in Example 1.\nas §2\nThe diameter of xenograft tumors in the nude mice was measured with a vernier caliper, and 10 days after inoculation, when tumors grew to 100 to 110 cm^3, the animals were randomized. Meanwhile drugs were administered by injection into tail vein, once every three days, for 21 successive days. The body weight of animals was also recorded to observe the toxicity of the test samples. 21 days after administration, the nude mice were sacrificed, and tumors were harvested by surgery, and weighed.\nThe test used 5 groups in total, with 5 animals per group.\n1) Control group: sodium chloride physiological solution, 10 ml/kg; 2) Thiotepa positive control group: thiotepa (0.2 mg/kg) diluted in sodium chloride physiological solution; 3) Test group 1: thiotepa (0.2 mg/kg) diluted in the sodium chloride deuterium oxide solution (1 ml/kg); 4) Test group 2: thiotepa (0.2 mg/kg) diluted in the sodium chloride deuterium oxide solution (10 ml/kg); 5) Test group 3: thiotepa (0.2 mg/kg) diluted in the sodium chloride deuterium oxide solution (25 ml/kg)."}, "[6]": {"system": "liver cancer H22 ascites tumor", "assay": "Liver cancer H22 ascites tumor mice, intraperitoneal retention lavage with deuterium oxide and cisplatin (room temperature or 42±1° C.)", "assay_type": "in vivo, Kunming mice", "conditions": "cisplatin 0.6 mg/kg + Ringer's solution", "method": "Animal: 4 to 5 week-aged male Kunming mice, provided by Shanghai SIPPR-BK Laboratory Animal Co. Ltd. Cell lines: […] CO., LTD. […] Test drugs: cisplatin, and the Ringer's deuterium oxide solution as prepared in Example 6. Grouping and dosing: the mouse model was established 7 to 8 days after inoculation, and the mice were randomized with 18 animals/group. Cisplatin were dissolved in a 42±1° C. Ringer's deuterium oxide solution, and used to lavage the peritoneal cavity of the tumor-bearing mice. 1). Blank control group (normal Ringer's solution, 10 ml/kg, room temperature); 2). Normal chemo group (cisplatin 0.6 mg/kg+normal Ringer's solution, 10 ml/kg, room temperature); 3). […] Room temperature high-dose deuterium oxide+cisplatin group (Ringer's deuterium oxide solution, 40 ml/kg+cisplatin 0.6 mg/kg); 6). Hyperthermic low-dose deuterium oxide+cisplatin group (42±1° C. […] Hyperthermic mid-dose deuterium oxide+cisplatin group (42±1° C. […] Hyperthermic high-dose deuterium oxide+cisplatin group (42±1° C. Ringer's deuterium oxide solution, 40 ml/kg+cisplatin 0.6 mg/kg); […] The lavage was performed once another day for 5 successive times. […] 4. […] Statistics: the same as Example 18."}, "[7]": {"system": "sarcoma S180 (ascites type)", "assay": "Sarcoma S180 (ascites type) mice, 42±1° C. intraperitoneal retention lavage with deuterium oxide, oxaliplatin and mitomycin", "assay_type": "in vivo, Kunming mice", "conditions": "oxaliplatin 0.8 mg/kg + glucose injection 5 ml/kg", "quoted_text": "Inhibition of sarcoma S180 (ascites type) in tumor-bearing mice by 42±1° C. hyperthermic intraperitoneal retention lavage using deuterium oxide in combination with oxaliplatin and using deuterium oxide in combination with oxaliplatin and mitomycin.\nCell lines: sarcoma S180 (ascites type) cell line was provided by NANJING KEYGEN BIOTECH. CO., LTD.\nModeling: 0.2 ml suspension of sarcoma S180 cells containing 1×10^7 cells/ml was inoculated into the peritoneal cavity of mice.\nTest drugs: oxaliplatin, mitomycin, and the glucose deuterium oxide solution as prepared in Example 2.\nGrouping and dosing: the mouse model was established 7 to 8 days after inoculation, and the mice were randomized with 12 animals/group.\nOxaliplatin and mitomycin were dissolved in a 42±1° C. glucose deuterium oxide solution, and used to lavage the peritoneal cavity of the tumor-bearing mice.\nBlank control group (5% glucose injection, 5 ml/kg); 2). Chemo group (oxaliplatin 0.8 mg/kg+5% glucose injection, 5 ml/kg); 3). Low-dose deuterium oxide+oxaliplatin group (5% glucose deuterium oxide solution, 5 ml/kg+oxaliplatin 0.8 mg/kg); 4). Mid-dose deuterium oxide+oxaliplatin group (5% glucose deuterium oxide solution, 20 ml/kg+oxaliplatin 0.8 mg/kg); 5). High-dose deuterium oxide+oxaliplatin group (5% glucose deuterium oxide solution, 40 ml/kg+oxaliplatin 0.8 mg/kg); 6). Low-dose deuterium oxide+oxaliplatin+mitomycin group (42±1° C. 5% glucose deuterium oxide solution, 5 ml/kg+oxaliplatin 0.8 mg/kg+mitomycin 0.4 mg/kg); 7). […]\nThe peritoneal cavity was lavaged with the 42±1° C. glucose deuterium oxide solution in combination with the above composition, which were retained for 10 min in the peritoneal cavity after being introduced, which was repeated for 3 times. […] 24 hours after the administration of drugs was completed (on day 11), 4 mice from each group were sacrificed, the volume of ascitic fluid was measured, and bodies of the mice were dissected to observe the peritoneal organs and metastasis to lung. […]"}}, "note": "Like-named read-outs stand apart in the source and are kept apart here. Marks after values point to notes of the source that are not given here.", "data": [{"smiles": "CC(=O)O[C@H]1C(=O)[C@@]2(C)[C@H]([C@H](OC(=O)c3ccccc3)[C@]3(O)C[C@H](OC(=O)[C@H](O)[C@@H](NC(=O)c4ccccc4)c4ccccc4)C(C)=C1C3(C)C)[C@]1(OC(C)=O)CO[C@@H]1C[C@@H]2O", "note": "[Paclitaxel, paclitaxel]", "values": [{"measurement": "Body weight (g) Initial", "setting": "[1]; Paclitaxel 8 mg/kg × 11, tail vein", "value": 18.4, "unit": "g"}, {"measurement": "Bone marrow DNA content (OD)", "setting": "[1]; Paclitaxel 8 mg/kg × 11, tail vein, control 0.950 ± 0.2711", "value": "0.841 ± 0.3014", "unit": "OD"}, {"measurement": "Tumor weight", "setting": "[1]; Paclitaxel 8 mg/kg × 11, tail vein, control 2.92 ± 0.27", "value": "0.94 ± 0.25", "unit": "g"}, {"measurement": "Body weight (g) End, given as change", "setting": "[1]; Paclitaxel 8 mg/kg × 11, tail vein, control +0.4", "value": -1.2, "unit": "g"}, {"measurement": "Body weight (g) Initial", "setting": "[1]; Paclitaxel 8 mg/kg × 11, tail vein, listed as paclitaxel", "value": "18.4 ± 0.5", "unit": "g"}, {"measurement": "body weight at end", "setting": "[1]; high-dose paclitaxel positive control", "value": "16.8 ± 0.9", "unit": "g"}, {"measurement": "Inhibition (%)", "setting": "[1]; tumor weight, Paclitaxel 8 mg/kg × 11, tail vein", "value": 67.80, "unit": "%*"}, {"measurement": "Body weight (g) Initial", "setting": "[2]", "value": 18.3, "unit": "g"}, {"measurement": "Bone marrow DNA content (OD)", "setting": "[2]; control 0.931 ± 0.2011", "value": "0.881 ± 0.2502", "unit": "OD"}, {"measurement": "Tumor weight", "setting": "[2]; control 4.07 ± 0.76", "value": "1.59 ± 0.40", "unit": "g"}, {"measurement": "Body weight (g) End, given as change", "setting": "[2]; control +3.3", "value": "+1.0 g"}, {"measurement": "Inhibition (%)", "setting": "[2]; tumor weight", "value": 60.93, "unit": "%*"}, {"measurement": "Tumor weight", "setting": "[3]; control 3.22 ± 1.59", "value": "2.07 ± 1.06", "unit": "g"}, {"measurement": "Body weight (g) End, given as change", "setting": "[3]; control +4.0", "value": "+2.8 g"}, {"measurement": "Inhibition (%)", "setting": "[3]; tumor weight", "value": 35.7, "unit": "%"}, {"measurement": "Body weight (g) Initial", "setting": "[4]", "value": 18.4, "unit": "g"}, {"measurement": "Tumor weight", "setting": "[4]", "value": "0.94 ± 0.25", "unit": "g"}, {"measurement": "Tumor weight", "setting": "[4]; listed as paclitaxel", "value": "0.94 ± 0.25", "unit": "g"}, {"measurement": "Body weight (g) End, given as change", "setting": "[4]; control +1.4", "value": "+0.9 g"}, {"measurement": "Inhibition (%)", "setting": "[4]", "value": "67.97* %"}, {"measurement": "Inhibition (%)", "setting": "[4]; listed as paclitaxel", "value": 67.97, "unit": "%"}]}, {"smiles": "S=P(N1CC1)(N1CC1)N1CC1", "note": "[Thiotepa, thiotepa]", "values": [{"measurement": "Body weight (g) Initial", "setting": "[5]", "value": 20.6, "unit": "g"}, {"measurement": "Tumor weight", "setting": "[5]; control 2.87 ± 1.11", "value": "1.75 ± 1.06", "unit": "g"}, {"measurement": "Body weight (g) End, given as change", "setting": "[5]; control +3.1", "value": "+2.6 g"}, {"measurement": "Inhibition (%)", "setting": "[5]", "value": 39.0, "unit": "%"}, {"measurement": "Inhibition (%)", "setting": "[5]; listed as thiotepa", "value": 39, "unit": "%"}]}, {"smiles": "N.N.[Cl][Pt][Cl]", "note": "[cisplatin]", "values": [{"measurement": "T/C(%)", "setting": "[6]; room temperature, i.p. lavage x 5", "value": 137.1, "unit": "%"}, {"measurement": "MST", "setting": "[6]; room temperature, i.p. lavage x 5, control 13.2 ± 1.9", "value": "18.1 ± 3.2", "unit": "days"}, {"measurement": "Ascitic fluid", "setting": "[6]; day 11, RT, control 14.85 ± 2.56", "value": "7.30 ± 2.32", "unit": "mL"}]}, {"smiles": "O=C1[O][Pt]2([NH][C@@H]3CCCC[C@H]3[NH]2)[O]C1=O", "note": "[oxaliplatin]", "values": [{"measurement": "Ascitic fluid", "setting": "[7]; day 11, control 16.5 ± 4.3", "value": "8.7 ± 1.9", "unit": "mL"}, {"measurement": "T/C(%)", "setting": "[7]; i.p. lavage x 5", "value": 177.6, "unit": "%"}, {"measurement": "MST", "setting": "[7]; i.p. lavage x 5, control 12.2 ± 3.0", "value": "21.7 ± 2.8", "unit": "days"}]}]}
